According to ChEMBL document CHEMBL1201862, “PubChem BioAssay data set” (2004):
Active and inactive are the calls of the source.

Key:
Insulin-degrading enzyme [1] = biological target: T1, Insulin-degrading enzyme (Homo sapiens, UniProt P14735); assay: recombinant IDE activation, cell-free – biochemical, fluorescence polarization, counter-screen for IDE activator project, dose response (AID 588681)
T1 sequence (P14735 whole entry): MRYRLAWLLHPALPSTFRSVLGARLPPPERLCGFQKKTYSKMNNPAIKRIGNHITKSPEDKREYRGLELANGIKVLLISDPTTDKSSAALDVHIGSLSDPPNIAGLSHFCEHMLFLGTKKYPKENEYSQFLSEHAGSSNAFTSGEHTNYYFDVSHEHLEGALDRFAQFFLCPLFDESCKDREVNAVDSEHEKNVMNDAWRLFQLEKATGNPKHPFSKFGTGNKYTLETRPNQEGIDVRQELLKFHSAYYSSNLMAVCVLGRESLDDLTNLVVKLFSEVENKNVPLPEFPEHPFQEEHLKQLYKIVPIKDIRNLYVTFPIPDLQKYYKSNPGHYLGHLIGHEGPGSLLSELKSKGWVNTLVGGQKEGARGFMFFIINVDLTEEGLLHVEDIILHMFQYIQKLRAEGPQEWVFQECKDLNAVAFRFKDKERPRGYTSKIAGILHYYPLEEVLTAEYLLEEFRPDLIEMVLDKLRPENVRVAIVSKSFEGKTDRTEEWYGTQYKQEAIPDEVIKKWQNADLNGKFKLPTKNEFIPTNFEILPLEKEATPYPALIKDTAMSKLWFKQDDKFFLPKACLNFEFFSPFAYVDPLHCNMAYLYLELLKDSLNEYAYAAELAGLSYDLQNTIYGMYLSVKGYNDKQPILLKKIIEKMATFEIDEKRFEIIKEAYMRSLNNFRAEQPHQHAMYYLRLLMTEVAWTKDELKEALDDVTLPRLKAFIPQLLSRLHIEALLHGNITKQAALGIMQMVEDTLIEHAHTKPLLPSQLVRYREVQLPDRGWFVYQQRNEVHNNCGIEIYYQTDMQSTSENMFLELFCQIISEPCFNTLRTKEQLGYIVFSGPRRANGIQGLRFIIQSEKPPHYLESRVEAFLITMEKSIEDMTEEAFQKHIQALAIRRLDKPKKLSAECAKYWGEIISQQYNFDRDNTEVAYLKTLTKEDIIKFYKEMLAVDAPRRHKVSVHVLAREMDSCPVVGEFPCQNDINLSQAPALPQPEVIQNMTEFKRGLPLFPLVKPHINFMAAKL

Beta-lactamase [2] = biological target: Beta-lactamase (Salmonella choleraesuis (strain SC-B67), UniProt Q5J463)
Chain of Beta-lactamase (Salmonella choleraesuis (strain SC-B67), UniProt Q5J463) (Q5J463 whole entry): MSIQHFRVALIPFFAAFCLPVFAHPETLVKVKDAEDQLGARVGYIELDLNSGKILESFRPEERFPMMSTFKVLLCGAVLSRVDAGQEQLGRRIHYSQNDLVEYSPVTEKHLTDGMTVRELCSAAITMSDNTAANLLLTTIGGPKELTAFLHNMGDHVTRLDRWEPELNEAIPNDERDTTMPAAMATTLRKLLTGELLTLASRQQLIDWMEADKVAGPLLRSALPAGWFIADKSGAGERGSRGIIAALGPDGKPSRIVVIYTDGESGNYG

Beta Lactamase [3] = biological target: T2, Beta Lactamase (Pseudomonas aeruginosa, UniProt Q932Y6); assay: BLA reporter interference, concentration series – BLA reporter cells, FRET fluorescence, artefact control for TLR9-MyD88 binding inhibitor project, dose response (AID 588341); type: cell-based;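 further: cell based assay in CHO-K1 cells stably expressing beta-lactamase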
T2 sequence (Q932Y6 whole entry): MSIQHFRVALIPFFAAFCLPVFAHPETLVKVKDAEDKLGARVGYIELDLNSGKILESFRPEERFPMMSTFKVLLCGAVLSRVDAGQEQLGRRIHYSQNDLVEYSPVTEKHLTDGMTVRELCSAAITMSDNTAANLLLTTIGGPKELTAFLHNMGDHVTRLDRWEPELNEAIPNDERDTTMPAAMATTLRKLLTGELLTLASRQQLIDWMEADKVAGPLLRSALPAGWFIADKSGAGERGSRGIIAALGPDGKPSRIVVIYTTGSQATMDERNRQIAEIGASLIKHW

Insulin-degrading enzyme [4] = biological target: T1, Insulin-degrading enzyme; assay: cellular IDE activation of Abeta substrate cleavage – fluorescence polarization, HEK cells, dose response (AID 588439); type: functional, cell-based
HEK293 [5] = assay: membrane integrity loss in HEK cells – cell-based, fluorescence, cytotoxicity control for IDE activator project, dose response (AID 588440); type: functional; conditions: Homo sapiens;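 further: cytotoxicity by LDH release measuring loss of membrane integrity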
[6] = test system: Streptococcus sp. 'group A'; assay: Streptococcus pyogenes SK(-)GAS viability under kanamycin – luminescence, BacTiterGlo, confirmation, counter-screen for streptokinase expression inhibitor project, dose response (AID 1900); type: functional, organism-based
Beta-lactamase [7] = biological target: Beta-lactamase (Pseudomonas aeruginosa, UniProt Q79MP6);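 further: biochemical dose-response test of metallo-beta-lactamase enzyme inhibition, read out by epi-absorbance; purified recombinant IMP-1 metallo-beta-lactamase with nitrocefin as substrate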
Chain of Beta-lactamase (Pseudomonas aeruginosa, UniProt Q79MP6) (Q79MP6 whole entry): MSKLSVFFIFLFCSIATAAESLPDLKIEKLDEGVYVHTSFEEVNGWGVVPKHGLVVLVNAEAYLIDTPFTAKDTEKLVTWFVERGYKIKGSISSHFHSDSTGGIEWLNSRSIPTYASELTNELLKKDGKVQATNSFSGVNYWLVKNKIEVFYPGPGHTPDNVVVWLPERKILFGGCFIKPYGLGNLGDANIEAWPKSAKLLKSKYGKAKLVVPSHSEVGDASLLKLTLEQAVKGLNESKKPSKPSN

HEK293 [8] = assay: optical interference in Abeta FP readout, dose response, artefact control for IDE activator project, biochemical, fluorescence polarization (AID 588442); type: functional, cell-based; conditions: Homo sapiens
Beta Lactamase [9] = biological target: T2, Beta Lactamase
[10] = biological target: UDP-galactopyranose mutase (Mycobacterium tuberculosis, UniProt P9WIQ1); assay: Inhibitors of Mycobacterium tuberculosis UDP-galactopyranose mutase (UGM) enzyme Measured in Biochemical System Using Plate Reader - 2105-02_Inhibitor_Dose_CherryPick_Activity. [Related pubchem assays (depositor defined):AID504439]
Chain of UDP-galactopyranose mutase (P9WIQ1 whole entry): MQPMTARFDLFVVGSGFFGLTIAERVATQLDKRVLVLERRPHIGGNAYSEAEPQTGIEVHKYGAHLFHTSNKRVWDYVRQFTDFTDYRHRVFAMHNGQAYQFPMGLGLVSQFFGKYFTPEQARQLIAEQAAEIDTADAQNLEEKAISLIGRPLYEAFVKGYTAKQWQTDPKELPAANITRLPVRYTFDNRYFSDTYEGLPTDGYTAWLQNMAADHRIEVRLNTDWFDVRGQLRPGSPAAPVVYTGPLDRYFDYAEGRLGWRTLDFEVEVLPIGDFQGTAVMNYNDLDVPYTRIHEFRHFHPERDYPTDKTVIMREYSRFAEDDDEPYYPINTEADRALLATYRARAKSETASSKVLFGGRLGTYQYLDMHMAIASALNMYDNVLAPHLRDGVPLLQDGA

Keap1/Nrf2 = Keap1/Nrf2 (Homo sapiens, UniProt Q14145); assay: disruptors of Keap1 binding to Nrf2 peptide – biochemical, fluorescence polarization, cherry-picked samples, dose response (AID 588683)
Chain of Keap1/Nrf2 (Q16236 whole entry): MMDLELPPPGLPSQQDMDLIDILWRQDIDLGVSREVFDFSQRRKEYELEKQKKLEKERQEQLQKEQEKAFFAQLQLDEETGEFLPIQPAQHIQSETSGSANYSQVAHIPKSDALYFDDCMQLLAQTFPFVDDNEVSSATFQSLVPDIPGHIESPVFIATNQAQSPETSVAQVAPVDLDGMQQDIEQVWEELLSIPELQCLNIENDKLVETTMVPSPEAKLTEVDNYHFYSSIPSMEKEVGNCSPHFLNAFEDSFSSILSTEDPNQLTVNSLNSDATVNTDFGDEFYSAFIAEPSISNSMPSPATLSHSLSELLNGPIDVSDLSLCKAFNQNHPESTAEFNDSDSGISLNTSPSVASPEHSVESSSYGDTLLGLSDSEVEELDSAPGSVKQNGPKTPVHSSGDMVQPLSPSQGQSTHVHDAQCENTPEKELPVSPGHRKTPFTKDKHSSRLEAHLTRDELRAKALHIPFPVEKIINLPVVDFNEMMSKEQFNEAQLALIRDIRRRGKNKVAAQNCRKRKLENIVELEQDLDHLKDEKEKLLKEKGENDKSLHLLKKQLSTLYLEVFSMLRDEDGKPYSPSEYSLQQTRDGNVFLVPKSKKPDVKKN
Chain of Keap1/Nrf2 (Q14145 whole entry): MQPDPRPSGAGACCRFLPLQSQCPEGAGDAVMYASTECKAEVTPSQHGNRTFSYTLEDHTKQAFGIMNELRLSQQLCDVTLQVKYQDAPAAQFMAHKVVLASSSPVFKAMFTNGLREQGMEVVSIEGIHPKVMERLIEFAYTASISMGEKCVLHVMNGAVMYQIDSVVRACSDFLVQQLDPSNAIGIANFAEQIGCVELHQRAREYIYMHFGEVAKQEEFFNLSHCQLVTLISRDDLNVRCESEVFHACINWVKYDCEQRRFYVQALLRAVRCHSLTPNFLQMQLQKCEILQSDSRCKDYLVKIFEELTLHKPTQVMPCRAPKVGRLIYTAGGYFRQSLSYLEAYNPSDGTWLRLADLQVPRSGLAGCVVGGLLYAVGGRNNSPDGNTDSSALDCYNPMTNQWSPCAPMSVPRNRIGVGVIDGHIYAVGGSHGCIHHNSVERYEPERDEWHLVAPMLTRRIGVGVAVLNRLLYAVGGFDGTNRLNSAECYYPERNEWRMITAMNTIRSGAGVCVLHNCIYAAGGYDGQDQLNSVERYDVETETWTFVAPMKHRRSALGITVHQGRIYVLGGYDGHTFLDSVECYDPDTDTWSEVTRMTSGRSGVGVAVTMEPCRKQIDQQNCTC

[11] = biological target: T3, Heat shock factor protein 1 (Mus musculus, UniProt P38532); assay: enhancement of HSF1-driven luciferase signal – cell-based, NIH3T3, luminescence, dose retest, confirmation (AID 435004); type: functional;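 further: stress induced by proteasome inhibitor MG132 added 30 min after compound; luciferase reporter driven by HSF1 response element in NIH3T3 cells; actives raise luminescence as potentiators of the MG132 stress response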
T3 sequence (P38532 whole entry): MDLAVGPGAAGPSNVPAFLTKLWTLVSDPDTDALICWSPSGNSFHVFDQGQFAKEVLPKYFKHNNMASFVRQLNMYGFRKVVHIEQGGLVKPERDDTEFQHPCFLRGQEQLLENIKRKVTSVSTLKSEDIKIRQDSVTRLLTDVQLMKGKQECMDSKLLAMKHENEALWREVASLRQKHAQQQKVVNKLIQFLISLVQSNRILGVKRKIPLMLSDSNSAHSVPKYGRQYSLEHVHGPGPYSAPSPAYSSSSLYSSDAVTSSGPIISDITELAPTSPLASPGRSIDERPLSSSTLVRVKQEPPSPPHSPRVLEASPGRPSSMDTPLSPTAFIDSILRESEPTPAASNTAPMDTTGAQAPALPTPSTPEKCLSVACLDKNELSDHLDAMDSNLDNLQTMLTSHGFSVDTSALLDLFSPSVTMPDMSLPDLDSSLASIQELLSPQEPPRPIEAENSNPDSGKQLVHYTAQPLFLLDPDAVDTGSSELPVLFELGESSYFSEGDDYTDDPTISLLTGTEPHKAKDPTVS

Streptococcus = assay: GAS UMAA2166 growth inhibition – luminescence, BacTiterGlo, counter-screen for streptokinase expression inhibitor project, dose response (AID 1915); type: functional, organism-based;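 further: potency for reduction of bacterial viability or growth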
Streptokinase A = biological target: T4, Streptokinase A (Streptococcus pyogenes serotype M1, UniProt P10520); assay: viability-normalized secreted streptokinase activity reduction – plasminogen activation absorbance, OD405, dose response (AID 1914); type: functional, Streptococcus pyogenes M1 GAS;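 further: secreted streptokinase activity via plasminogen activation per viability signal from cell pellet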
T4 sequence (P10520 whole entry): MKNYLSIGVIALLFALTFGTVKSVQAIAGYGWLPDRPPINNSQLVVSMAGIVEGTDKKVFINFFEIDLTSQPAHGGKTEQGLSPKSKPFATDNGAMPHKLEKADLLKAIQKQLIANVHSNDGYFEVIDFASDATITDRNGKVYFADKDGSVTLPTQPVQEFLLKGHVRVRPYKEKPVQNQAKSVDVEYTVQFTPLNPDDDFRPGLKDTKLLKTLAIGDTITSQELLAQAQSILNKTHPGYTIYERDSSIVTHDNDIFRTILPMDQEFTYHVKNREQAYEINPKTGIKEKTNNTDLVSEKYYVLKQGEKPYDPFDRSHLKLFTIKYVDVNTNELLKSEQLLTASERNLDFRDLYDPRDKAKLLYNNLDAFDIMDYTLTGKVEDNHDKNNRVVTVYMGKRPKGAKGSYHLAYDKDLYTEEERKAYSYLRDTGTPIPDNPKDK

HeLa = assay: viability loss in HeLa cells – cell-based, 24 h, cherry-picked samples, cytotoxicity control, dose response (AID 504726); type: functional; conditions: Homo sapiens
ORF 73 = ORF 73 (Human herpesvirus 8, UniProt O40947); assay: KSHV LANA DNA-binding disruption – biochemical, fluorescence polarization, cherry-picked samples, dose response (AID 504725); set-up: species or system Human gammaherpesvirus 8;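 further: fluorescence polarization of a labeled DNA duplex reporting LANA DNA binding; potency is for inhibitors that block LANA binding to the DNA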
Chain of ORF 73 (O40947 whole entry, the tested form may be a part): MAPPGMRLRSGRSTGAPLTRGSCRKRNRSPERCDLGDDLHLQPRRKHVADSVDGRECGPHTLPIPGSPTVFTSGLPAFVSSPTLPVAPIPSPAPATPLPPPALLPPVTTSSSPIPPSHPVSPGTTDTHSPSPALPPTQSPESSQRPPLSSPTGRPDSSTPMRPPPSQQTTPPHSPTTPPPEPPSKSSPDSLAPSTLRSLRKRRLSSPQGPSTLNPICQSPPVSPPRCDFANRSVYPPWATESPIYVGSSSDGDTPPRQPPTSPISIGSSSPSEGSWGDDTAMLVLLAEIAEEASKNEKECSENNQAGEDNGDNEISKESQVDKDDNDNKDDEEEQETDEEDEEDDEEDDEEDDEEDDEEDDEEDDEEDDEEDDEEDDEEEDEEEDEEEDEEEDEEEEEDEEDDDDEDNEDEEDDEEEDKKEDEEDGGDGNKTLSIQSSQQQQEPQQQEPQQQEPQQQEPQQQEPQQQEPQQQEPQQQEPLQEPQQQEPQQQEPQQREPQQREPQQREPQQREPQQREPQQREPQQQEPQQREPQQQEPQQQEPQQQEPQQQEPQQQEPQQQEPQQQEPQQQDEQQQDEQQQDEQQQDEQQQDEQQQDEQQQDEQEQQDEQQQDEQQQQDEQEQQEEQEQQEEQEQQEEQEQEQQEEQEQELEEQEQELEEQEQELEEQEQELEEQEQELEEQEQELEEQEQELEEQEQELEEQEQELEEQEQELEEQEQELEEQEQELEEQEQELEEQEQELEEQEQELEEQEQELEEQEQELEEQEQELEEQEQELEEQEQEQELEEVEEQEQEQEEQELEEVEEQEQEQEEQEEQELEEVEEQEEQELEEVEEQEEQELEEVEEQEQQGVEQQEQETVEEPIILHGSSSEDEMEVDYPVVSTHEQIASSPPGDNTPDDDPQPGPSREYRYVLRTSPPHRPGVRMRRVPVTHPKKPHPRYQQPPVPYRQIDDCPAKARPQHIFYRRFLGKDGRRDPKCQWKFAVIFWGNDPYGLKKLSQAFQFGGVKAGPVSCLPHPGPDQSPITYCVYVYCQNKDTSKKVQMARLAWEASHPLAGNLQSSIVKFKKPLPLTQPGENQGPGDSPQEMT

CHO = CHO cell viability loss, potency – luminescence, cytotoxicity control for TLR9-MyD88 binding inhibitor project, dose response (AID 588339); type: functional, cell-based, hamster; conditions: Cricetulus griseus;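 further: CHO cells stably coexpressing TLR9 and MyD88 fusions from primary screen; compound exposure lasted 48 hours before viability readout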
[12] = viability loss of HMLE_sh_eGFP cells – cell-based, luminescence, counter-screen for HMLE_sh_ECad selective toxicity project, dose response (AID 463074); type: functional, Homo sapiens;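 further: HMLE human mammary epithelial cells expressing control shRNA against eGFP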
[13] = Luminescence Cell-Based Dose Retest to Confirm Inhibitors of Cancer Stem Cells. [Related pubchem assays (depositor defined):AID2717, AID2721]; type: functional; conditions: Homo sapiens
[14] = biological target: Dual specificity protein phosphatase 3 (Homo sapiens, UniProt P51452); assay: SAR VHR1 Fluorescent Assay for In Vitro dose response studies Set 3. [Related pubchem assays (depositor defined):AID1654, AID1661, AID1878]; type: functional
Chain of Dual specificity protein phosphatase 3 (P51452 whole entry): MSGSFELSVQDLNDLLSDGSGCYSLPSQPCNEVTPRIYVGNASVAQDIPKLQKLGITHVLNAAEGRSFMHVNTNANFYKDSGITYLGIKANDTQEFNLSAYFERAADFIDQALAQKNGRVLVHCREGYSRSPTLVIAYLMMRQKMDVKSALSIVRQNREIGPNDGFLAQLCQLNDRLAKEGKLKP

HEK293 [15] = assay: cells; conditions: Homo sapiens
HEK293 [16] = assay: cells; conditions: Homo sapiens; remark: listed apart in the source
HEK293 [17] = assay: SAR Analysis of small molecule inhibitors of B-cell specific antigen receptor-induced NF-kB activation in a HEK-293T cell line using a luminescence assay - Set 2. [Related pubchem assays (depositor defined):AID435022, AID435025, AID489021]; type: functional, cell-based; conditions: Homo sapiens
Jurkat = assay: SAR Analysis of small molecule inhibitors of […] specific antigen receptor-induced NF-kB activation in a Jurkat cell line using a luminescence assay - Set 3. [Related pubchem assays (depositor defined):AID435022, AID435025, AID465]; type: functional, cell-based; conditions: Homo sapiens
HEK293 [18] = assay: HEK293T cell viability loss, resazurin readout – resazurin fluorescence, cytotoxicity control for NF-kB activator project, SAR follow-up (AID 493251); type: functional, cell-based; conditions: Homo sapiens

Q: Which EC50 (Insulin-degrading enzyme [1]) does the source give for CCCC/N=C1\C(=O)N(C)c2cccc3c(O)c4ccccc4c1c23 here?
A: The EC50 was > 54.7 µM (inactive).

Q: And the IC50 (Beta-lactamase [2])?
A: Its IC50 is 4.28 µM (active).

Q: What about the IC50 (Beta Lactamase [3]) of the same compound?
A: Its IC50 is 9.06 µM (active).

Q: And the EC50 (Insulin-degrading enzyme [4])?
A: Its EC50 is > 54.7 µM (inactive).

Q: And the IC50 (HEK293 [5])?
A: Its IC50 is > 89.2 µM (inactive).

Q: And the EC50 [6]?
A: The EC50 was 6.81 µM (active).

Q: And the IC50 (Beta-lactamase [7])?
A: The IC50 was 14.3 µM (inactive).

Q: And the EC50 (HEK293 [8])?
A: Its EC50 is > 54.7 µM (inactive).

Q: What about the IC50 (Beta Lactamase [9]) of the same compound?
A: The IC50 was 11.9 µM (inactive).

Q: And the AC50 [10]?
A: The AC50 was 1.04 µM (active).

Q: What about the AC50 (Keap1/Nrf2) of the same compound?
A: Its AC50 is 1.13 µM (active).

Q: What about the EC50 [11] of the same compound?
A: The EC50 was 56.5 µM (active).

Q: What about the EC50 (Streptococcus) of the same compound?
A: The EC50 was 35.4 µM (active).

Q: And the EC50 (Streptokinase A)?
A: The EC50 was 21.4 µM (active).

Q: What about the AC50 (HeLa) of the same compound?
A: Its AC50 is > 350 µM (inactive).

Q: And the AC50 (ORF 73)?
A: Its AC50 is 4.99 µM (active).

Q: And the IC50 (CHO)?
A: Its IC50 is 20.1 µM (inactive).

Q: Which results are given for O=C(CSc1ccc(F)cc1)N1CCC(c2nc3ccccc3s2)CC1?
A: AC50 [12]: 26.9 µM (active); AC50 [13]: 40.5 µM (active)

Q: With Cc1ccc(C(=O)NC(=S)Nc2ccc(Cl)c(-c3nc4ccccc4s3)c2)cc1 as the compound, how does the IC50 [14] read?
A: Its IC50 is > 66 µM (inactive).

Q: With COc1ccc(N2C(=O)NC(NC(=O)C(C)(C)C)(C(F)(F)F)C2=O)cc1 (stereo not given) as the compound, how does the EC50 (HEK293 [15]) read?
A: Its EC50 is > 59.7 µM (inactive).

Q: What about the EC50 (HEK293 [16]) of the same compound?
A: The EC50 was > 59.7 µM (inactive).

Q: For CC(C)(C)c1ccc(-c2noc(CCC(=O)NC3CCCC3)n2)cc1, which IC50 (HEK293 [17]) is on record?
A: The IC50 was 0.78 µM (active).

Q: What about the IC50 (Jurkat) of the same compound?
A: Its IC50 is 0.48 µM (active).

Q: And the IC50 (HEK293 [18])?
A: The IC50 was > 80 µM (inactive).
